According to patent publication US7829080B2, “Stabilization method of reduced coenzyme Q10” (Kaneka Corporation, priority 2006, dated 2010):

Assays:
[1] = Plasma total coenzyme Q after 14-day oral administration (Example 3); format: in vivo, Crj:CD (SD) rats; conditions: male and female rats, 600 mg/kg oral in corn oil once a day for 14 days, 24 hr after final administration; compared to the reduced coenzyme Q10 administration group
Procedure: A first group was used as a control group, and corn oil (3 ml/kg) was orally administered once a day for 14 days. […] At 24 hr after the final administration, blood samples were collected to give plasma samples. Using HPLC, the concentration of coenzyme Q in the obtained plasma was measured. The results are shown in the bar graph of FIG. 1.

[2] = Oral absorbability test (Example 4); format: in vivo, Crj:CD (SD) rats; conditions: male rats, 25 mg/ml soy bean oil solution at 4.0 ml/kg, 2 hr from administration
Procedure: Crj:CD (SD) rats (about 77-week-old, 10 male rats) were prepared. Reduced coenzyme Q10 was orally administered to 5 of them, and a mixture of reduced coenzyme Q10 and reduced coenzyme Q11 (containing 0.1% of reduced coenzyme Q11) was orally administered to the remaining 5 of them, each as a 25 mg/ml soy bean oil solution at a dose of 4.0 ml/kg. At 2 hr from the administration, blood was drawn and centrifuged to give plasma samples. Using HPLC, the concentration of coenzyme Q10 in the obtained plasma was measured. The results are shown in the bar graph of FIG. 2. As is clear from FIG. 2, the concentration of coenzyme Q10 in the plasma was about 3.4 μg/ml resulting from the administration of both reduced coenzyme Q10 and a mixture of reduced coenzyme Q10 and reduced coenzyme Q11.

concentration of total coenzyme Q in the plasma [1] | SMILES | concentration of coenzyme Q10 in the plasma [2]
increased | COc1c(O)c(C)c(C/C=C(\C)CC/C=C(\C)CC/C=C(\C)CC/C=C(\C)CC/C=C(\C)CC/C=C(\C)CC/C=C(\C)CC/C=C(\C)CCC=C(C)C)c(O)c1OC [reduced coenzyme Q9] | –
– | COc1c(O)c(C)c(C/C=C(\C)CC/C=C(\C)CC/C=C(\C)CC/C=C(\C)CC/C=C(\C)CC/C=C(\C)CC/C=C(\C)CC/C=C(\C)CC/C=C(\C)CCC=C(C)C)c(O)c1OC [reduced coenzyme Q10] | about 3.4 μg/ml
